Source: ChEMBL document CHEMBL1201862, “PubChem BioAssay data set” (2004)
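All cell lines were grown in 96-well plates and treated with compound for 48 hours. GI50: concentration for 50% inhibition of growth.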 Active and inactive are the calls of the source. Cut-off read from the data, not from the text of the source: active = GI50 up to about 1.1 µM and inactive = higher.

What was measured:
Assay in all cases: inhibition of tumour cell growth, NCI panel, 48 h
[1] = tested on: Malme-3M
[2] = tested on: A498
[3] = tested on: NCI-H522
[4] = tested on: OVCAR-5
[5] = tested on: SR
[6] = tested on: U-251
[7] = tested on: HCC 2998
[8] = tested on: ACHN
[9] = tested on: CCRF-CEM
[10] = tested on: NCI-H226
[11] = tested on: SK-OV-3
[12] = tested on: SK-MEL-5
[13] = tested on: SN12C
[14] = tested on: NCI-H23
[15] = tested on: HL-60
[16] = tested on: SF-295
[17] = tested on: SNB-19
[18] = tested on: HOP-92
[19] = tested on: NCI-H460
[20] = tested on: HCT-15

Row | Compound | GI50 [1] | GI50 [2] | GI50 [3] | GI50 [4] | GI50 [5] | GI50 [6] | GI50 [7] | GI50 [8] | GI50 [9] | GI50 [10] | GI50 [11] | GI50 [12] | GI50 [13] | GI50 [14] | GI50 [15] | GI50 [16] | GI50 [17] | GI50 [18] | GI50 [19] | GI50 [20]
1 | COc1c(-c2ccc(F)cc2)oc2c(CC(=O)O)cccc2c1=O | > 100 µM (inactive) | > 100 µM (inactive) | > 100 µM (inactive) | > 100 µM (inactive) | > 100 µM (inactive) | > 100 µM (inactive) | > 100 µM (inactive) | > 100 µM (inactive) | > 100 µM (inactive) | > 100 µM (inactive) | > 100 µM (inactive) | > 100 µM (inactive) | > 100 µM (inactive) | 45.5 µM (inactive) | > 100 µM (inactive) | > 100 µM (inactive) |  |  |  | 
2 | N#Cc1ccccc1Sc1ccccc1N | 42.8 µM (inactive) | > 100 µM (inactive) |  | 36.1 µM (inactive) | 72.6 µM (inactive) | > 100 µM (inactive) |  | > 100 µM (inactive) | 73.1 µM (inactive) | 13 µM (inactive) | > 100 µM (inactive) | 18.7 µM (inactive) | 78.3 µM (inactive) | 67.8 µM (inactive) | 72.6 µM (inactive) | > 100 µM (inactive) | > 100 µM (inactive) | 20.7 µM (inactive) | > 100 µM (inactive) | 
3 | N#C/C(N)=C(C#N)/N=C/Nc1ccccc1N | > 100 µM (inactive) | > 100 µM (inactive) | > 100 µM (inactive) | > 100 µM (inactive) | > 100 µM (inactive) | > 100 µM (inactive) | > 100 µM (inactive) | > 100 µM (inactive) | > 100 µM (inactive) | > 100 µM (inactive) | > 100 µM (inactive) | > 100 µM (inactive) | > 100 µM (inactive) | > 100 µM (inactive) | > 100 µM (inactive) | > 100 µM (inactive) | > 100 µM (inactive) |  | > 100 µM (inactive) | > 100 µM
4 | COc1ccc(C2(CC(C)C)CCN(S(=O)(=O)c3ccc(C)cc3)C2)cc1OC (stereo unspecified) |  |  | 25.8 µM (inactive) | > 100 µM (inactive) | 1.11 µM (active) | 36.2 µM (inactive) | 27.6 µM (inactive) | 36.6 µM (inactive) | 17.9 µM (inactive) | 22.5 µM (inactive) | 36.9 µM (inactive) | 13.6 µM (inactive) | > 100 µM (inactive) | 29.8 µM (inactive) |  | 36.5 µM (inactive) | 49.7 µM (inactive) |  | 29.2 µM (inactive) | 31.7 µM
5 | O=S1(=O)OCCOS(=O)(=O)C1F | > 100 µM (inactive) |  | > 100 µM (inactive) | > 100 µM (inactive) | > 100 µM (inactive) | > 100 µM (inactive) | > 100 µM (inactive) | > 100 µM (inactive) | > 100 µM (inactive) | > 100 µM (inactive) | > 100 µM (inactive) | > 100 µM (inactive) | > 100 µM (inactive) | > 100 µM (inactive) | > 100 µM (inactive) | > 100 µM (inactive) | > 100 µM (inactive) |  |  | > 100 µM
6 | CCn1c2ccccc2c2nnc(NCCCO)nc21 | > 100 µM (inactive) | > 100 µM (inactive) | > 100 µM (inactive) | > 100 µM (inactive) | 92.5 µM (inactive) | > 100 µM (inactive) |  | > 100 µM (inactive) | > 100 µM (inactive) | > 100 µM (inactive) | > 100 µM (inactive) | 94.4 µM (inactive) | > 100 µM (inactive) | > 100 µM (inactive) | > 100 µM (inactive) | > 100 µM (inactive) | > 100 µM (inactive) | > 100 µM (inactive) | > 100 µM (inactive) | > 100 µM
7 | NNC(=O)c1nn[nH]c1C(=O)NN | 15.1 µM (inactive) |  |  | > 100 µM (inactive) | > 100 µM (inactive) | > 100 µM (inactive) | > 100 µM (inactive) |  | > 100 µM (inactive) |  |  | > 100 µM (inactive) | > 100 µM (inactive) | > 100 µM (inactive) | > 100 µM (inactive) | > 100 µM (inactive) | > 100 µM (inactive) |  | > 100 µM (inactive) | > 100 µM
8 | FC(F)(F)C1(Cl)C(c2ccccc2)=C1c1ccccc1 | 15.1 µM (inactive) |  |  | 17.4 µM (inactive) | 22.3 µM (inactive) | 14.7 µM (inactive) | 17.7 µM (inactive) | 16.6 µM (inactive) | 2.49 µM (inactive) | 15.5 µM (inactive) | 18.2 µM (inactive) | 11.7 µM (inactive) | 15.6 µM (inactive) | 15.7 µM (inactive) | 7.73 µM (inactive) | 14.9 µM (inactive) | 17.9 µM (inactive) | 14.8 µM (inactive) | 16 µM (inactive) | 14.3 µM
